Data set [1] is described as follows: Generation of hydroxide ions from mucic acid sodium salt slurry and calcium hydroxide (pH measurement). Format: physicochemical. As to conditions: 7 g mucic acid + 2.66 g sodium hydroxide slurry. Here is the method:
An incremental amount of calcium hydroxide was then added slowly to the slurry of mucic acid sodium salt, and the pH was measured.

Data set [2] can be described thus: Solubility. In kind it is physicochemical.
Data set [3] can be described thus: Relaxing efficiency (% RE) of hair swatch after treatment, 24 hours at 90% RH. The method, then:
A naturally kinky hair swatch was relaxed using a composition comprising at least one hydroxide composition comprising at least one hydroxide compound and at least one activating composition comprising at least one complexing agent according to the present invention. The relaxed hair swatch was then rinsed, shampooed, and then placed in the humidity chamber at 90% Relative Humidity (% RH) for 24 hours. The percent Relaxing Efficiency (% RE) is defined as:
Lf=length of the relaxed hair after 24 hours at 90% RH
Lt=length of the hair at the straight configuration
This mucic acid sodium salt slurry was mixed with 6 g of a 7% calcium hydroxide cream. The calcium hydroxide cream contained the following ingredients by weight, relative to the total weight of the cream:
The mixture of mucic acid sodium salt slurry and calcium hydroxide cream was applied to naturally kinky hair for 30 minutes. The treated hair was shampooed and then placed in a humidity chamber at 90% RH for 24 hours.

The conditions of data set [4]: for Appearance / pH: 3 g VERSENE 220 in 97 g water. The method, then:
The present invention also provides for a simple screening test, which may be used to determine the applicability of a complexing agent for use as the at least one complexing agent in the lanthionizing compositions of the present invention.
A screening test to determine the applicability of a complexing agent for use in the lanthionizing compositions of the present invention was carried out.

Where a name gives a salt, the structure may show the parent alone. Read-outs that look alike come from different tables or passages of the source.

As for `O=C(O)[C@@H](O)[C@H](O)[C@H](O)[C@@H](O)C(=O)O` [mucic acid sodium salt], the pH in data set [1] (0.0 g calcium hydroxide added) stood at 12.39; in data set [1] (0.2 g calcium hydroxide added) it was 13.02; in data set [1] (0.4 g calcium hydroxide added), 13.32; in data set [1] (0.6 g calcium hydroxide added), 13.46; in data set [1] (0.8 g calcium hydroxide added), 13.51; in data set [1] (1.0 g calcium hydroxide added), 13.53. For the same molecule, the pH in data set [1] (1.2 g calcium hydroxide added) is reported as 13.55. Moreover, in data set [2] (mucic acid sodium salt mixed with calcium hydroxide), the “observation upon mixing with calcium hydroxide” value is on record as “precipitation was observed”.
With `O=C(O)C(O)C(O)C(O)C(O)C(=O)O` (stereo not shown) [Mucic Acid, 1,2,3,4-tetrahydroxy-1,4-butane dicarboxylic acid], the “% RE” value in data set [3] (curly hair, 6 g 7% calcium hydroxide cream, 1:0.7 molar ratio calcium hydroxide:mucic acid, 2 g water in mucic acid salt slurry) is 42%; in data set [3] (curly hair, 6 g 7% calcium hydroxide cream, 1:0.7 molar ratio calcium hydroxide:mucic acid, 3 g water in mucic acid salt slurry), 88%; in data set [3] (curly hair, 6 g 7% calcium hydroxide cream, 1:0.7 molar ratio calcium hydroxide:mucic acid, 4 g water in mucic acid salt slurry) it was 95%; in data set [3] (curly hair, 6 g 7% calcium hydroxide cream, 1:0.7 molar ratio calcium hydroxide:mucic acid, 5 g water in mucic acid salt slurry), 98%; in data set [3] (curly hair, 6 g 7% calcium hydroxide cream, 1:0.7 molar ratio calcium hydroxide:mucic acid, 6 g water in mucic acid salt slurry), 99%; in data set [3] (naturally kinky hair, 30 minutes, 6 g 7% Ca(OH)2 cream, 0.36 g mucic acid, 0.27 g 50% NaOH, 3 g water, molar ratio calcium hydroxide:mucic acid 1:0.3) it was 54%. Further, the “% RE” value was 81% in data set [3] (naturally kinky hair, 30 minutes, 6 g 7% Ca(OH)2 cream, 0.48 g mucic acid, 0.37 g 50% NaOH, 3 g water, molar ratio calcium hydroxide:mucic acid 1:0.4); 80% in data set [3] (naturally kinky hair, 30 minutes, 6 g 7% Ca(OH)2 cream, 0.60 g mucic acid, 0.46 g 50% NaOH, 3 g water, molar ratio calcium hydroxide:mucic acid 1:0.5); 86% in data set [3] (naturally kinky hair, 30 minutes, 6 g 7% Ca(OH)2 cream, 0.84 g mucic acid, 0.64 g 50% NaOH, 3 g water, molar ratio calcium hydroxide:mucic acid 1:0.7); 21% in data set [3] (naturally kinky hair, 30 minutes, 6 g 7% Ca(OH)2 cream, 1.19 g mucic acid, 0.9 g 50% NaOH, 3 g water, molar ratio calcium hydroxide:mucic acid 1:1). The “solubility in organic solvents” value in data set [2] (most organic solvents, for example alcohols and ethers) is recorded as “insoluble”. Also, the “solubility in water (salt form)” value in data set [2] (water at high pH) is “about 0.7%”.
On to `O=C([O-])CN(CCN(CC(=O)[O-])CC(=O)[O-])CC(=O)[O-].[Na+].[Na+].[Na+].[Na+]` [Na4EDTA, tetrasodium EDTA], for which the “amount of Ca(OH)2 dissolved in the solution at the end of the reaction” value in data set [4] (3 g VERSENE 220 (0.0066 moles) in 97 g water) came out at 0.60 g. Besides, the Appearance entry in data set [4] (0 g Ca(OH)2 added) is reported as “Clear”; in data set [4] (0.20 g Ca(OH)2 added), “Clear”; in data set [4] (0.40 g Ca(OH)2 added), “Clear”; in data set [4] (0.60 g Ca(OH)2 added), “Clear”; in data set [4] (0.65 g Ca(OH)2 added), “Cloudy”. The pH in data set [4] (0 g Ca(OH)2 added) is 11.62; in data set [4] (0.20 g Ca(OH)2 added) it was 13.32; in data set [4] (0.40 g Ca(OH)2 added) it was 13.52; in data set [4] (0.60 g Ca(OH)2 added) it was 13.59; in data set [4] (0.65 g Ca(OH)2 added), 13.63.

(Values after US6782895B2, “Compositions comprising at least one hydroxide compound and at least one complexing agent, and methods for using the same” (L'Oreal, S.A., priority 2001, dated 2004).)
